Measurements taken from the supplement of paper PMC11562712.

Assay: first-order primary biodegradation rate constant k (sorption-corrected, fDis-corrected) (d-1); higher = faster biodegradation
Procedure, shortened: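 River water with sieved sediment (50 g wet solid L^–1) from German, Swiss, Spanish and Greek river segments was spiked with 129 compounds at 1 μg L^–1 each. It was shaken in the dark at river water temperature (20.5 ± 3.5 °C) for 10 days. Filtered water-phase subsamples were analysed by UHPLC-Orbitrap-MS/MS. First-order k came from log peak-area regression over three replicates, corrected for azide-sterilised sorption-control dissipation and divided by dissolved fraction; invalid fits excluded.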

[1] = river segment: Germany (DE) T_Contam, incubation temperature 24 °C
[2] = river segment: Spain (ES) F_Pris_Salt, incubation temperature 24 °C
[3] = river segment: Spain (ES) L_Contam, incubation temperature 24 °C
[4] = river segment: Switzerland (CH) C_Contam, incubation temperature 17 °C
[5] = river segment: Switzerland (CH) U_Contam, incubation temperature 17 °C
[6] = river segment: Switzerland (CH) U_Pris, incubation temperature 17 °C
[7] = river segment: Greece (EL) A_Contam, incubation temperature 19 °C
[8] = river segment: Spain (ES) B_Contam, incubation temperature 24 °C
[9] = river segment: Spain (ES) C_Contam, incubation temperature 24 °C
[10] = river segment: Switzerland (CH) R_Contam, incubation temperature 17 °C
[11] = river segment: Germany (DE) H_Contam, incubation temperature 24 °C
[12] = river segment: Greece (EL) G_Pris, incubation temperature 19 °C
[13] = river segment: Greece (EL) L_Contam, incubation temperature 19 °C
[14] = river segment: Germany (DE) T_Pris, incubation temperature 24 °C
[15] = river segment: Greece (EL) G_Contam, incubation temperature 19 °C

| Compound | first-order primary biodegradation rate constant k [1] | first-order primary biodegradation rate constant k [2] | first-order primary biodegradation rate constant k [3] | first-order primary biodegradation rate constant k [4] | first-order primary biodegradation rate constant k [5] | first-order primary biodegradation rate constant k [6] | first-order primary biodegradation rate constant k [7] | first-order primary biodegradation rate constant k [8] | first-order primary biodegradation rate constant k [9] | first-order primary biodegradation rate constant k [10] | first-order primary biodegradation rate constant k [11] | first-order primary biodegradation rate constant k [12] | first-order primary biodegradation rate constant k [13] | first-order primary biodegradation rate constant k [14] | first-order primary biodegradation rate constant k [15] |
| --- | --- | --- | --- | --- | --- | --- | --- | --- | --- | --- | --- | --- | --- | --- | --- |
| COc1c(Cl)ccc(Cl)c1C(=O)O [Dicamba] | 0.109 | 0.107 | 0.229 | 0.0368 | 0.0133 | 0.1 | – | – | – | – | – | – | – | – | – |
| CC1=CC(=O)NS(=O)(=O)O1 [Acesulfame] | – | – | 0.293 | – | – | – | 0.191 | 1.27 | 0.157 | 0.0997 | – | – | – | – | – |
| CC(C)c1ccc(NC(=O)N(C)C)cc1 [Isoproturon] | 0.0814 | – | 0.0402 | – | 0.0187 | 0.0209 | 0.072 | – | 0.0102 | – | 0.0107 | 0.111 | 0.0309 | – | – |
| CCc1cccc(CC)c1N(COC)C(=O)CCl [Alachlor] | 0.612 | – | 0.12 | 0.0903 | 0.349 | – | – | 0.115 | – | 0.223 | 0.0727 | 0.387 | 0.568 | 0.105 | – |
| CCCCC1=NC2(CCCC2)C(=O)N1Cc1ccc(-c2ccccc2-c2nnn[nH]2)cc1 [Irbesartan] | – | – | 0.426 | – | 0.0556 | – | – | – | – | – | 0.161 | 0.0725 | – | – | – |
| Cc1ccc(S(=O)(=O)O)cc1 [p-Toluenesulfonic acid] | 0.52 | 0.0548 | 0.55 | 0.764 | 0.186 | 0.12 | 0.369 | 0.18 | 0.543 | 0.292 | 1.06 | 0.0811 | 0.27 | 0.422 | – |
| NCC1(CC(=O)O)CCCCC1 [Gabapentin] | 0.183 | 0.119 | 0.235 | – | 0.0703 | 0.15 | 0.0518 | 0.811 | 0.119 | 0.109 | 0.0147 | 0.0145 | – | – | – |
| Cc1ccc(NC(=O)N(C)C)cc1Cl [Chlortoluron] | 0.156 | – | 0.114 | – | 0.0378 | 0.0569 | 0.306 | 0.0189 | – | – | 0.0585 | 0.423 | 0.139 | 0.00289 | 0.0396 |
| NC(=O)N1c2ccccc2C=Cc2ccccc21 [Carbamazepine] | 0.0377 | – | 0.711 | – | – | – | 0.00808 | – | 0.00861 | – | – | – | 0.00883 | – | – |
| NS(=O)(=O)c1cc(C2(O)NC(=O)c3ccccc32)ccc1Cl (stereo unspecified) [Chlorthalidone] | 0.0182 | – | – | – | – | – | – | – | – | – | 0.0136 | – | – | – | – |
| CCN(CC)CC(=O)Nc1c(C)cccc1C [Lidocaine] | 0.00344 | – | 0.118 | 0.00975 | 0.0121 | 0.0138 | 0.0177 | 0.0307 | 0.287 | 0.00379 | 0.0105 | 0.00116 | 0.0298 | – | – |
| COc1ccc(NS(=O)(=O)c2ccc(N)cc2)nn1 [Sulfamethoxypyridazine] | 0.382 | – | 1.07 | 0.0233 | – | 0.0441 | 0.161 | – | – | – | 0.0977 | 0.441 | 0.195 | – | 0.396 |
| CCCCCCCCCCCCN [Dodecylamine] | – | – | – | – | – | – | – | – | – | – | – | – | – | – | 7.74 |
| CCOC(=O)c1ccc(O)cc1 [Ethylparaben] | – | – | 0.364 | – | 0.0177 | – | 0.0419 | 0.466 | 2.12 | – | – | – | 0.108 | – | 0.114 |
| Cc1cc(Cl)ccc1OC(C)C(=O)O (stereo unspecified) [Mecoprop] | 0.267 | 0.0616 | 0.0286 | 0.0712 | 0.163 | 0.417 | 0.155 | 0.0613 | 0.159 | 0.201 | 0.0948 | 0.0919 | 0.0787 | 0.0247 | 0.021 |
| COC(=O)Nc1nc2ccccc2[nH]1 [Carbendazim] | 0.155 | 0.03 | 0.0322 | – | 0.0106 | 0.0192 | 0.1 | 0.0208 | 0.00806 | – | 0.0157 | 0.0594 | – | 0.00648 | – |
| CC[C@@H](C(N)=O)N1CCCC1=O [Levetiracetam] | 0.49 | – | 0.262 | – | – | – | 0.382 | 0.958 | 0.236 | 0.35 | 0.229 | 0.188 | – | 0.0839 | – |
